Experimental data: US20070258989A1, “Immunomodulatory pharmaceutical composition and a process for preparation thereof” (Council of Scientific and Industrial Research, priority 2005, published 2007)

How the values were obtained:
[1] = system: Normal Mice (Mus musculus); assay: Immunostimulant (humorral) activity: haemagglutination (HA) antibody titre after immunisation with rabbit RBC's; type: in vivo; details: for Haemagglutination titre: mice fed 50-100 mg/Kg body weight, rabbit RBC antigen day 7 and 14, highest serum dilution showing agglutination
Description: A. For Humorral Immune Response • a) Treating the animals with the combination of the three coumarinolignoids at the dose in the range of 50-200 mg/Kg body weight for a period of 1-28 days. • b) Administering the animals with an antigen in the range of 0.01 to 0.3 ml of 5×10^9 RBC's in combination with a pharmaceutically acceptable diluent in a range 20-80% of the antigen used on day 7 for the initiation of antibody production. • c) Administering the same dosage regimen of the antigen and diluent as a booster dose after a period of 3-14 days from the day of primary immunization. • d) Withdrawing the blood using a capillary from the orbital plexus of the animal after a period of 18-25 days from the day of primary immunization. • e) Assessing the antibody production in the serum separated and isolated on 28th day through haemagglutination in a 96 well ‘U’ bottom microtitre plate at a titre ranging from 32-2048.
Normal healthy outbred mice, maintained under standard conditions (22±3° C., 12:12 hr light:dark cycle, pellet diet and soaked Bengal gram), 5 animals in each group were taken for the experiment. The animals were fed with the test compound at the dose rate of 50-100 mg/Kg body weight for a period of 1-28 days. Freshly collected and washed rabbit RBC's was used as an antigen which was used to immunize the animal on day 7 followed by the booster dose on day 14th. Blood was collected from the orbital plexus after 21 days and assessed for haemaggluting (HA) titre. The haemagglutination was carried upon using a serial two-fold dilution of the serum in 96 well ‘U’ bottom microtitre plates. The highest dilution showing visible agglutination was taken as the antibody titre.

[2] = system: Hepatocytes (primary cultured liver cells); assay: SGOT quantification of cell culture supernatant of liver cells damaged with d-galactosamine; type: cell-based; details: compounds @ 1 μg/ml, 48-72 hrs incubation
Description: Hepatocytes were isolated and cultured into tissue culture plates and damaged with d-galactosamine @ 1 μg/ml and the cells were treated with the compounds under question. After 48-72 hrs of incubation the cell culture supernatant was taken for the estimation of SGOT levels which is indicative of the damage of the primary cultured liver cells.

| Compound | humorral immunity HA titre ([1]; 256 in normal control) | Haemagglutination titre ([1]; animal 1) | Haemagglutination titre ([1]; animal 2) | Haemagglutination titre ([1]; animal 3) | Haemagglutination titre ([1]; animal 4) | Haemagglutination titre ([1]; animal 5) | Haemagglutination titre ([1]; animal 7) | SGOT levels of the cell culture supernatant ([2]; d-Galactosamine concentration 0.01) | SGOT levels of the cell culture supernatant ([2]; d-Galactosamine concentration 0.1) | SGOT levels of the cell culture supernatant ([2]; d-Galactosamine concentration 1) | SGOT levels of the cell culture supernatant ([2]; d-Galactosamine concentration 10) |
| --- | --- | --- | --- | --- | --- | --- | --- | --- | --- | --- | --- |
| O=P1(N(CCCl)CCCl)NCCCO1 (centres unmarked) [Ledoxan, Cyclophosphamide] | 0 | 0 | 0 | 0 | 0 | 0 | 0 | – | – | – | – |
| N[C@H]1C(O)O[C@H](CO)[C@H](O)[C@@H]1O (stereo partly drawn) [d-galactosamine] | – | – | – | – | – | – | – | 286 | 325 | 420 | 455 |
